Measurements: US20060058361A1, “Therapeutic diphenyl ether ligands” (Pfizer Inc, priority 2004, published 2006)

Compound | melting point
CNCc1cc(C)c([S+](C)[O-])cc1Oc1ccc(Cl)c(C)c1C (centres unmarked) [Example 19, [2-(4-Chloro-2,3-dimethylphenoxy)-4-methanesulfinyl-5-methylbenzyl]methylamine] | 220 to 222 °C
CNC(C)c1cc(F)c(Cl)cc1Oc1ccc(Cl)cc1F (centres unmarked) [Example 41, {1-[4-Chloro-2-(4-chloro-2-fluorophenoxy)-5-fluorophenyl]ethyl}-methylamine] | 178 to 180 °C
CNCc1cc(C)c(Cl)cc1Oc1ccc(Cl)cc1F [Example 43, [4-Chloro-2-(4-chloro-2-fluorophenoxy)-5-methylbenzyl]methylamine] | 212 to 214 °C
CNCc1cc(C)c(C)cc1Oc1ccc(Cl)cc1F [Example 45, [2-(4-Chloro-2-fluorophenoxy)-4,5-dimethylbenzyl]methylamine] | 134 to 136 °C
CNCc1ccc(OC)cc1Oc1ccc(Cl)cc1F [Example 46, [2-(4-Chloro-2-fluorophenoxy)-4-methoxy-benzyl]methylamine] | 186 to 188 °C
CNCc1ccc(C)cc1Oc1ccc(Cl)cc1F [Example 47, [2-(4-Chloro-2-fluorophenoxy)-4-methylbenzyl]methylamine] | 198 to 220 °C
CNCc1ccc(Br)cc1Oc1ccc(Cl)cc1F [Example 50, [4-Bromo-2-(4-chloro-2-fluorophenoxy)benzyl]methylamine] | 204 to 206 °C
CNCc1cc(F)c(S(C)(=O)=O)cc1Oc1ccc(Cl)cc1F [Example 52, [2-(4-Chloro-2-fluorophenoxy)-5-fluoro-4-methanesulfonylbenzyl]methylamine] | 184 to 186 °C
CNCc1ccc(Cl)cc1Oc1ccc(F)c2c1CCC2 [Example 57, [4-Chloro-2-(7-fluoroindan-4-yloxy)benzyl]methylamine] | 204 to 206 °C
CNCc1ccc(S(C)(=O)=O)cc1Oc1ccc2c(c1)CCC2 [Example 58, [2-(Indan-5-yloxy)-4-methanesulfonylbenzyl]methylamine] | 88 to 90 °C
CCSc1ccc(CNC)c(Oc2ccc(Cl)cc2)c1 [Example 60, [2-(4-Chlorophenoxy)-4-ethylsulfanylbenzyl]methylamine] | 158 to 160 °C
